Assays:
Type in all cases: functional
SNB-75 = experiment: Growth inhibition of human SNB75 cells assessed as cell growth at 10^-7 M after 48 hrs by sulforhodamine B assay; conditions: SNB-75, 48 h, read-out: Activity
MDA-MB-435 [1] = experiment: Growth inhibition of human MDA-MB-435 cells assessed as cell growth at 10^-6 M after 48 hrs by sulforhodamine B assay; conditions: MDA-MB-435, 48 h, read-out: Activity
IGROV-1 = experiment: Growth inhibition of human IGROV1 cells assessed as cell growth at 10^-8 M after 48 hrs by sulforhodamine B assay; conditions: IGROV-1, 48 h; for growth at 0.01 µM: read-out: Activity; for TGI: read-out: pTGI (converted)
NCI-H522 = experiment: Growth inhibition of human NCI-H522 cells assessed as cell growth at 10^-4 M after 48 hrs by sulforhodamine B assay; conditions: NCI-H522, 48 h, read-out: Activity
SW-620 = experiment: Growth inhibition of human SW620 cells after 48 hrs by sulforhodamine B assay; conditions: SW-620, 48 h; for CC50: read-out: LC50 (the source's name)
[2] = Growth inhibition of human HOP92 cells after 48 hrs by sulforhodamine B assay; conditions: HOP-92, 48 h; for CC50: read-out: LC50 (the source's name)
K562 [3] = experiment: Growth inhibition of human K562 cells after 48 hrs by sulforhodamine B assay; conditions: K562, 48 h; for CC50: read-out: LC50 (the source's name)
[4] = Growth inhibition of human UO31 cells assessed as cell growth at 10^-4 M after 48 hrs by sulforhodamine B assay; conditions: UO-31, 48 h, read-out: Activity
DU-145 = experiment: Growth inhibition of human DU145 cells assessed as cell growth at 10^-8 M after 48 hrs by sulforhodamine B assay; conditions: DU-145, 48 h; for growth at 0.01 µM: read-out: Activity; for TGI: read-out: pTGI (converted)
[5] = Growth inhibition of human BT549 cells assessed as cell growth at 10^-6 M after 48 hrs by sulforhodamine B assay; conditions: BT-549, 48 h, read-out: Activity
HL-60(TB) = experiment: Growth inhibition of human HL-60(TB) cells after 48 hrs by sulforhodamine B assay; conditions: HL-60, 48 h; for CC50: read-out: LC50 (the source's name)
MCF7 = experiment: Growth inhibition of human MCF7 cells assessed as cell growth at 10^-8 M after 48 hrs by sulforhodamine B assay; conditions: MCF7, 48 h; for growth at 0.01 µM: read-out: Activity; for TGI: read-out: pTGI (converted)
T47D = experiment: Growth inhibition of human T47D cells assessed as cell growth at 10^-8 M after 48 hrs by sulforhodamine B assay; conditions: for growth at 0.01 µM: read-out: Activity; for CC50: read-out: pLC50 (the source's name) (converted); for TGI: read-out: pTGI (converted)
[6] = Growth inhibition of human OVCAR3 cells assessed as cell growth at 10^-8 M after 48 hrs by sulforhodamine B assay; conditions: OVCAR-3, 48 h; for growth at 0.01 µM: read-out: Activity; for TGI: read-out: pTGI (converted)
A549 = experiment: Growth inhibition of human A549/ATCC cells after 48 hrs by sulforhodamine B assay; conditions: A549, 48 h; for CC50: read-out: LC50 (the source's name)
[7] = Growth inhibition of human SF539 cells assessed as cell growth at 10^-6 M after 48 hrs by sulforhodamine B assay; conditions: SF-539, 48 h, read-out: Activity
[8] = Growth inhibition of human SF295 cells assessed as cell growth at 10^-6 M after 48 hrs by sulforhodamine B assay; conditions: SF-295, 48 h, read-out: Activity
[9] = Growth inhibition of human OVCAR3 cells assessed as cell growth at 10^-7 M after 48 hrs by sulforhodamine B assay; conditions: OVCAR-3, 48 h, read-out: Activity
PC-3 = experiment: Growth inhibition of human PC3 cells assessed as cell growth at 10^-8 M after 48 hrs by sulforhodamine B assay; conditions: PC-3, 48 h; for growth at 0.01 µM: read-out: Activity; for TGI: read-out: pTGI (converted)
ACHN = experiment: Growth inhibition of human ACHN cells assessed as cell growth at 10^-7 M after 48 hrs by sulforhodamine B assay; conditions: read-out: Activity
K562 [10] = experiment: Growth inhibition of human K562 cells assessed as cell growth at 10^-8 M after 48 hrs by sulforhodamine B assay; conditions: K562, 48 h; for growth at 0.01 µM: read-out: Activity; for CC50: read-out: pLC50 (the source's name) (converted); for TGI: read-out: pTGI (converted)
[11] = Growth inhibition of human NCI-ADR-RES cells after 48 hrs by sulforhodamine B assay; conditions: for CC50: read-out: LC50 (the source's name)
U-251 = experiment: Growth inhibition of human U251 cells assessed as cell growth at 10^-7 M after 48 hrs by sulforhodamine B assay; conditions: U-251, 48 h, read-out: Activity
MDA-MB-435 [12] = experiment: Growth inhibition of human MDA-MB-435 cells assessed as cell growth at 10^-8 M after 48 hrs by sulforhodamine B assay; conditions: MDA-MB-435, 48 h; for growth at 0.01 µM: read-out: Activity; for TGI: read-out: pTGI (converted)
HT-29 = experiment: Growth inhibition of human HT-29 cells after 48 hrs by sulforhodamine B assay; conditions: HT-29, 48 h; for CC50: read-out: LC50 (the source's name)
HOP-62 = experiment: Growth inhibition of human HOP62 cells assessed as cell growth at 10^-8 M after 48 hrs by sulforhodamine B assay; conditions: HOP-62, 48 h; for growth at 0.01 µM: read-out: Activity; for TGI: read-out: pTGI (converted)
COLO 205 [13] = experiment: Induction of apoptosis in human COLO205 cells assessed as caspase 9 activation at 10 uM by FLICA
SK-MEL-2 = experiment: Growth inhibition of human SK-MEL-2 cells after 48 hrs by sulforhodamine B assay; conditions: SK-MEL-2, 48 h; for CC50: read-out: LC50 (the source's name)
[14] = Growth inhibition of human OVCAR8 cells after 48 hrs by sulforhodamine B assay; conditions: OVCAR-8, 48 h; for CC50: read-out: LC50 (the source's name)
COLO 205 [15] = experiment: Induction of apoptosis in human COLO205 cells assessed as early apoptosis cells level at 10 uM after 24 hrs by Annexin V/propidium iodide staining-based fluorescence microscopy
[16] = Growth inhibition of human UO31 cells assessed as cell growth at 10^-6 M after 48 hrs by sulforhodamine B assay; conditions: UO-31, 48 h, read-out: Activity
SNB-19 = experiment: Growth inhibition of human SNB19 cells assessed as cell growth at 10^-7 M after 48 hrs by sulforhodamine B assay; conditions: SNB-19, 48 h, read-out: Activity

## O=C1/C(=C/c2ccc(Cl)cc2Cl)CN(S(=O)(=O)c2ccccc2)C/C1=C\c1ccc(Cl)cc1Cl
SNB-75
  growth at 0.1 µM: 71%
MDA-MB-435 [1]
  growth at 1 µM: 50%
IGROV-1
  GI50: 0.316 µM
  LC50: > 100 µM
  growth at 0.01 µM: 116%
  TGI: 0.646 µM
NCI-H522
  growth at 100 µM: -56%
SW-620
  GI50: 0.317 µM
  TGI: 2.79 µM
  CC50: > 100 µM
[2]
  GI50: 1.7 µM
  TGI: 5.55 µM
  CC50: > 100 µM
K562 [3]
  GI50: 0.346 µM
  TGI: > 100 µM
  CC50: > 100 µM
[4]
  growth at 100 µM: -60%
DU-145
  GI50: 0.447 µM
  LC50: > 100 µM
  growth at 0.01 µM: 106%
  TGI: 18.6 µM
[5]
  growth at 1 µM: 50%
HL-60(TB)
  GI50: 0.562 µM
  TGI: 3.97 µM
  CC50: > 100 µM
MCF7
  GI50: 0.302 µM
  LC50: > 100 µM
  growth at 0.01 µM: 96%
  TGI: 100 µM
T47D
  GI50: 1.26 µM
  growth at 0.01 µM: 99%
  CC50: > 100 µM
  TGI: 100 µM
[6]
  GI50: 0.309 µM
  LC50: 5.01 µM
  growth at 0.01 µM: 112%
  TGI: 0.813 µM
A549
  GI50: 0.277 µM
  TGI: 0.887 µM
  CC50: > 100 µM
[7]
  growth at 1 µM: 22%
[8]
  growth at 1 µM: 13%
[9]
  growth at 0.1 µM: 108%
PC-3
  GI50: 0.288 µM
  LC50: > 100 µM
  growth at 0.01 µM: 100%
  TGI: 1.02 µM
ACHN
  growth at 0.1 µM: 96%
K562 [10]
  GI50: 0.347 µM
  growth at 0.01 µM: 102%
  CC50: > 100 µM
  TGI: > 100 µM
[11]
  GI50: 1.37 µM
  TGI: > 100 µM
  CC50: > 100 µM
U-251
  growth at 0.1 µM: 86%
MDA-MB-435 [12]
  GI50: 0.977 µM
  LC50: > 100 µM
  growth at 0.01 µM: 90%
  TGI: 3.24 µM
HT-29
  GI50: 0.293 µM
  TGI: 0.843 µM
  CC50: > 100 µM
HOP-62
  GI50: 0.389 µM
  LC50 (concentration killing 50% of cells): > 100 µM
  growth at 0.01 µM: 103%
  TGI: > 100 µM
COLO 205 [13]
  Activity: 22%
SK-MEL-2
  GI50: 6.01 µM
  TGI: > 100 µM
  CC50: > 100 µM
[14]
  GI50: 0.286 µM
  TGI: 0.958 µM
  CC50: > 100 µM
COLO 205 [15]
  Activity: 52%
[16]
  growth at 1 µM: -22%
SNB-19
  growth at 0.1 µM: 89%

## Cc1ccc(S(=O)(=O)N2C/C(=C\c3cc(F)cc(F)c3)C(=O)/C(=C/c3cc(F)cc(F)c3)C2)cc1
SNB-75
  growth at 0.1 µM: 90%
MDA-MB-435 [1]
  growth at 1 µM: -18%
IGROV-1
  GI50: 0.437 µM
  LC50: 5.13 µM
  growth at 0.01 µM: 106%
  TGI: 1.55 µM
NCI-H522
  growth at 100 µM: -94%
SW-620
  GI50: 0.0721 µM
  TGI: 0.305 µM
  CC50: 1.45 µM
[2]
  GI50: 1.11 µM
  TGI: 3.3 µM
  CC50: 9.78 µM
K562 [3]
  GI50: 0.0772 µM
  TGI: 1.37 µM
  CC50: > 100 µM
[4]
  growth at 100 µM: -95%
DU-145
  GI50: 1.23 µM
  LC50: 7.59 µM
  growth at 0.01 µM: 106%
  TGI: 3.09 µM
[5]
  growth at 1 µM: -4%
HL-60(TB)
  GI50: 0.289 µM
  TGI: 1.74 µM
  CC50: > 100 µM
MCF7
  GI50: 0.174 µM
  LC50: 6.92 µM
  growth at 0.01 µM: 89%
  TGI: 1.45 µM
T47D
  GI50: 1.78 µM
  growth at 0.01 µM: 96%
  CC50: 53.7 µM
  TGI: 6.03 µM
[6]
  GI50: 0.437 µM
  LC50: 4.57 µM
  growth at 0.01 µM: 110%
  TGI: 1.45 µM
A549
  GI50: 2.86 µM
  TGI: 14.6 µM
  CC50: > 100 µM
[7]
  growth at 1 µM: 61%
[8]
  growth at 1 µM: 29%
[9]
  growth at 0.1 µM: 112%
PC-3
  GI50: 0.245 µM
  LC50: 9.33 µM
  growth at 0.01 µM: 93%
  TGI: 0.794 µM
ACHN
  growth at 0.1 µM: 99%
K562 [10]
  GI50: 0.0776 µM
  growth at 0.01 µM: 94%
  CC50: > 100 µM
  TGI: 1.38 µM
[11]
  GI50: 0.439 µM
  TGI: 10.1 µM
  CC50: 76.7 µM
U-251
  growth at 0.1 µM: 80%
MDA-MB-435 [12]
  GI50: 0.24 µM
  LC50: 3.63 µM
  growth at 0.01 µM: 96%
  TGI: 0.692 µM
HT-29
  GI50: 0.229 µM
  TGI: 0.638 µM
  CC50: 3.19 µM
HOP-62
  GI50: 2.04 µM
  LC50 (concentration killing 50% of cells): 11.7 µM
  growth at 0.01 µM: 98%
  TGI: 4.68 µM
COLO 205 [13]
  Activity: 40.5%
SK-MEL-2
  GI50: 1.97 µM
  TGI: 4.66 µM
  CC50: 14.8 µM
[14]
  GI50: 0.301 µM
  TGI: 1.77 µM
  CC50: 16.3 µM
COLO 205 [15]
  Activity: 30%
[16]
  growth at 1 µM: 55%
SNB-19
  growth at 0.1 µM: 82%

Reference: ChEMBL document CHEMBL3217615, “Novel 3,5-bis(arylidiene)-4-piperidone based monocarbonyl analogs of curcumin: anticancer activity evaluation and mode of action study” (2014)
